| melting point | Compound |
| --- | --- |
| 116 to 119 °C | CC(=O)Oc1ccc(Cc2ccc(C(=O)O)nc2)cc1 |
| 341 to 343 °C | O=C(Nc1ccccn1)c1nnc2ccccc2c1O |
| 91 to 93 °C | O=C(O)Cc1cccc(Oc2ccccc2O)c1O |
| 219 °C | COc1cc2c(cc1OC)N(c1ccc([N+](=O)[O-])cc1[N+](=O)[O-])CC2 |
| 228 to 230 °C | CNC(=O)C(Cc1ccc([N+](=O)[O-])cc1)NC(=O)Nc1n[nH]c(=S)s1 (stereo not given) |
| 116 °C | CCCCNc1nc2cc(C)nn2c2ccncc12 |
| 119 to 120 °C | CC(C)(C)C1=C(C(=O)OCc2ccc([N+](=O)[O-])cc2)N2C(=O)C(C)(C)C2O1 (stereo not given) |
| 97 to 99 °C | CC(=O)CCc1ccc(OCCCC(=O)O)cc1 |
| 182 to 184 °C | CC(C)Oc1ccccc1-c1ncc(C#N)c(=O)[nH]1 |
| 263 to 265 °C | Cn1c(C(F)(F)F)cc(=O)n(-c2ccc(Cl)c(C=CC#N)c2)c1=O |
| 242 to 243 °C | COc1ccc(SSc2ccc(OC)cc2C(=O)Nc2ccc(S(N)(=O)=O)cc2)c(C(=O)Nc2ccc(S(N)(=O)=O)cc2)c1 |
| 145 to 150 °C | CCOC(=O)c1ccc2cc(N=[N+]=[N-])ccn2c1=O |
| 105 to 111 °C | CC(C)(C)c1cc(C(=O)Nc2cccc(OCc3cncc(Br)c3)c2)ccc1O |
| 138 to 139 °C | CC1(C)COC(c2ccc(F)cc2Cl)=N1 |
| 120 to 123 °C | O=C(Nc1ccc(F)cc1F)N(Cc1ccccc1)CC(c1ccccc1)c1ccccc1 |
| 234 to 236 °C | CS(=O)(=O)c1ccc(-c2cnn(-c3ccccc3C=O)c(=O)c2-c2ccc(F)cc2)cc1 |
| 169 to 170 °C | CCOP(=O)(OCC)C(Nc1nc2ccccc2[nH]1)P(=O)(OCC)OCC |
| 233 to 234 °C | CCc1cccc(CC)c1NC(=O)Nc1oc2ccc(Cl)cc2c1-c1ccccc1C |
| 182 °C | CCCCOc1ccc(S(=O)(=O)C2(C(=O)O)CCN(CCCC)CC2)cc1 |
| 162 to 164 °C | CON1C=C2N=NC3=C(N2C1)N(c1ccccn1)CC(C1CC1)=C3 |
| 114 °C | CC(C)(N)c1ccc(-c2nc(Nc3ccc(CCN4CCCCC4)cc3)ncc2C#N)cc1 |
| 84 °C | CC(C)(C)OC(=O)NCC(=O)OCCCNc1cccc2c1C(=O)c1ccccc1C2=O |
| 235 to 238 °C | CCNc1nc2ccccc2n2c(CC)nnc12 |

| melting point | Compound |
| --- | --- |
| 93 to 95 °C | CC(CCl)n1c(C(F)(F)F)nc2cc(F)c(-n3c(=O)cc(C(F)(F)F)n(C)c3=O)cc21 (stereo not given) |
| 239 to 240 °C | CC(C)C1(C)N=C(c2nc3occ(Cl)c3cc2C(=O)O)NC1=O (stereo not given) |
| 156 to 158 °C | CN(C)C(=S)N(C)Cc1ccc(CCn2cnc3cc(-c4ccc(Cl)cc4)sc3c2=O)cc1 |
| 64 to 66 °C | C=CCc1cnc2c([N+](=O)[O-])cccc2c1Cl |
| 120 to 122 °C | CC(=O)c1ccc(O)c(CCCc2ccccc2)c1O |
| 99 to 101 °C | CCCCCCCCOc1ccc(-c2ncc(Br)cn2)cn1 |
| 129 to 131 °C | CCOC(=O)c1cc2c(OCc3ccccc3)c(Cc3ccccc3)ccc2[nH]1 |
| 239 °C | Cc1cc(O)cc(C)c1NC=O |
| 82 to 83 °C | CCOC(=O)c1cncc(OC)c1CCCOc1cccnc1Oc1cccc(Cl)c1 |
| 88 to 91 °C | CCOC(=O)C(C)=C(C)NC(=O)Nc1ccc(Cl)c(C(=O)OCC)c1 |
| 240 to 241 °C | N#CCNC1(c2ccccc2Cl)C(=O)Nc2ccc(Cl)cc21 (stereo not given) |
| 98 to 100 °C | CCC(=O)CC(=O)OCCC#N |
| 62 to 63 °C | c1ccc(COc2cccc3c2OCO3)cc1 |
| 69.5 to 72 °C | Cc1cccc(C)c1NC(C)CN(C)C=O (stereo not given) |
| 247 °C | CCOc1cc(-c2cc(C(F)F)n3ncc(C(=O)O)c3n2)ccc1C(F)(F)F |
| 145 to 146 °C | COc1nc2nc(SCc3ccccc3)nn2cc1C |
| 239 to 241 °C | Cc1cc(CNC(=O)c2cc(-n3cnn(Cc4ccc(F)cc4)c3=O)n[nH]2)[nH]n1 |
| 182 °C | CC(c1ccc(C(=O)O)cc1)N(C)c1ccc(Br)cc1OCc1ccccc1 (stereo not given) |
| 176 to 178 °C | COc1cc([N+](=O)[O-])ccc1N1C(=O)C(=O)N(c2cccc(Cl)c2)C1=O |
| 244 to 245 °C | COc1ccc(C2CCC(=O)Nc3ccccc3C2=O)cc1 (stereo not given) |
| 207 to 208 °C | COc1ccc(CN2C(=O)C3(COc4cc(OC)c(C#N)cc43)c3ccccc32)cc1 (stereo not given) |
| 199 °C | COc1ccccc1N(CC(=O)N(C)c1ccccc1)C(=O)CN1C(=O)c2ccccc2C1=O |
| 224 to 225 °C | COc1cc(-c2cnc3[nH]cc(C(=O)NCC(C)(C)CO)c3n2)cc(OC)c1OC |

| melting point | Compound |
| --- | --- |
| 90 to 93 °C | CC(=O)OCC1OC(Oc2ccsc2C(=O)c2ccc(OC(F)(F)F)cc2)C(OC(C)=O)C(OC(C)=O)C1OC(C)=O (stereo not given) |
| 92 to 94 °C | O=C(c1ccccc1)c1ccc(OCCO)cc1O |
| 209 °C | O=C(Nc1nc(C(Cl)(Cl)Cl)ns1)c1c(Cl)cccc1Cl |
| 95 °C | CCCC1CCC(c2ccc(-c3cc(F)c(C(F)(F)Oc4cc(F)c(C(F)(F)F)c(F)c4)c(F)c3)c(F)c2)OC1 (stereo not given) |
| 202 °C | CC(=O)Nc1nc2cc(CN3CCN(C(c4ccccc4)c4ccccc4)CC3)ccc2n1C |
| 180 °C | CN1CCN(C(=O)c2ccc(-c3cnc4c(c3)N(Cc3cc(F)ccc3F)CCN4)cc2)CC1 |
| 88.5 to 90 °C | CN(C)CCn1c(-c2cccc(C(F)(F)F)c2)cc2c1CCSC2 |
| 265 to 267 °C | O=C(O)Cn1cc(Cc2nc3cc(C(F)(F)F)ccc3s2)c2ccc(Br)cc21 |
| 98 to 100 °C | CC(C)(C)OC(=O)NCc1cccc(OCCC2Oc3ccccc3N(Cc3cccc(Cl)c3)C2=O)c1 (stereo not given) |
| 120 to 122 °C | Cc1ncc2c(n1)-c1ccc(Cl)cc1C(c1ccccc1)=NC2 |
| 88 to 89 °C | O=[N+]([O-])c1cc2c(cc1O)CCCC2 |
| 82 to 84 °C | COc1cc(C)c(C(=O)c2c(C)cccc2O)c(OC)c1OC |
| 121 to 123 °C | Nc1ncc(Oc2ccc(Cl)cc2)c(N2CCN(CCO)CC2)n1 |
| 178 to 179 °C | CCCN(Cc1ccc(-c2ccccc2-c2nnnn2C(c2ccccc2)(c2ccccc2)c2ccccc2)cc1)c1nc(C)nnc1C(=O)OCC |
| 256 to 257 °C | Cn1nc(-c2ccc(Cl)cc2)c2c(=O)n3c(nc21)SCC3 |
| 38 to 39 °C | Clc1ccccc1-c1cnccn1 |
| 175 to 182 °C | C(=C\c1cc(/C=C/c2ccc3cc[nH]c3c2)n[nH]1)/c1ccc(Oc2ccccc2)cc1 |
| 45 to 50 °C | CC1(C)SCC(CO)S1 (stereo not given) |
| 44 to 46 °C | CCCCCCCCCC(=O)Oc1ccc(N)cc1OC(=O)CCCCCCCCC |
| 149 °C | NCCSc1cc(N)c([N+](=O)[O-])cc1N |
| 104 to 105 °C | CCn1nnnc1Cc1ccc([N+](=O)[O-])cc1 |
| 73 to 74 °C | CC(CO)c1ccc(-c2ccccc2F)cc1 (stereo not given) |

| Compound | melting point |
| --- | --- |
| CN1CC2CC(=NO)c3cccc4c3N2C(C1)c1ccccc1C4 (stereo not given) | 209 to 210 °C |
| O=C(O)CCSC1c2ccc(-c3nnn[nH]3)cc2COc2ccc(OCc3ccc4ccccc4n3)cc21 (stereo not given) | 151 to 153 °C |
